Measured values published in patent US9150528B2, “Compound having detrusor muscle-contracting activity and urethral sphincter muscle-relaxing activity” (ONO PHARMACEUTICAL CO., LTD., priority 2009, dated 2015).

Columns and labels:
[1] = test system: bladder detrusor; assay: Contraction of isolated rat bladder strip specimens (Magnus system), KCl-induced contraction; type: cell-based; conditions: for Contractility of the bladder detrusor according to the compound concentration treated: rat bladder strip
Experimental: Rats were anesthetized with pentobarbital, followed by abdominal incision to remove the bladders and the urethras. The bladder bodies were cut in the longitudinal direction to prepare strip specimens with a size of about 10×3 mm. Additionally, each of the urethras was also cut in the longitudinal direction to prepare specimens with a size of about 10×3 mm. The prepared specimens were suspended in Krebs buffer (37° C., 5 mL), which was aerated with a mixed gas of 95% O2 and 5% CO2. The tension values of the specimens were measured using a Magnus system equipped with an isometric transducer and an amplifier, and the measured values were recorded on a computer via a data collection system.
The specimens were suspended with a load of about 0.5 g. More than 1 hr later, potassium chloride (100 mmol/L) was added and the maximal contraction response was observed. After washing with Krebs buffer, the specimens were suspended with a load of about 0.5 g for stabilization. A potassium chloride solution (7.5 mmol/L) was added to induce the contraction of the specimens. After the contraction-inducing response was stabilized, the test compound was added in a cumulative manner and the response was observed before and after the treatment with the drug.

[2] = test system: normal rats; assay: Blood pressures and heart rates in normal rats; type: in vivo, rat; conditions: oral
Experimental: The blood pressures and heart rates of female Wistar rats were measured in accordance with the following procedure. On the day of measurement, indwelling of catheters for blood pressure•heart rate measurement was carried out under anesthesia with ether. The back of the neck of each rat was incised; a feeding catheter (Atom Medical Corporation) filled with heparinized physiological saline was introduced from the back of the neck; the catheter was inserted into the common carotid artery; and the surgical incision was closed. The measurements were carried out in a Bollmann cage under the conscious state, and the evaluations were carried out after confirming that the individual parameters were stabilized. After confirming the stabilization of blood pressure and heart rate, the test compound which was prepared using injectable water containing equimolar NaOH was orally administered at a dose of 5 mL/kg.
The catheter drawn from the back of the neck was connected to a pressure transducer (DX-200, NIHON KOHDEN CORP.), and the blood pressures and heart rates were measured using an amplifier for pressure measurement (Gould Instrument). The blood pressures and heart rates were recorded using a recorder (LINEARCORDERWR3320, GRAPHTEC). For each individual, rates of increase and decrease in average blood pressure and heart rate before administration and 30, 60, 120, and 180 min after administration were calculated with respect to the values of each individual before administration. Changes in blood pressure and heart rate before and after administration of the test compound were evaluated.

[3] = test system: spontaneously hypertensive rats; assay: Blood pressure and heart rate measurement in hypertensive rats; type: in vivo, rat; conditions: continuous intravenous administration for 30 min
Experimental: The blood pressures and heart rates of male spontaneously hypertensive rats were measured. On the day of measurement, indwelling of catheters for blood pressure•heart rate measurement and subject substance administration was carried out under anesthesia with ether. The back of the neck of each rat was incised, a feeding catheter (Atom Medical Corporation) filled with heparinized physiological saline was introduced from the back of the neck; the catheter was inserted into the common carotid artery and internal jugular vein; and the surgical incision was closed. The measurements were conducted in a Bollmann cage under the conscious state and evaluations were carried out after confirming that the individual parameters were stabilized. After confirming the stabilization of blood pressure and heart rate, the test compound was continuously administered intravenously at a flow rate of 5 mL/kg/h for 30 min.
The catheter drawn from the back of the neck was connected to a pressure transducer (DX-200, NIHON KOHDEN CORP.), and the blood pressures and heart rates were measured using a blood pressure amplifier (Gould instrument). The blood pressures and heart rates were recorded on recording paper using a recorder (LINEARCORDER WR3320, GRAPHTEC). The blood pressures and heart rates were converted into values on the recording paper before administration and 2.5, 5, 10, 15, 30, 45 and 60 min after administration. For each individual, rates of increase and decrease in the parameters were evaluated relative to the value before administration (value at 0 min).

[4] = test system: male rats; assay: Digestive symptoms after repeated oral administration; type: in vivo, rat; conditions: 0.1 mg/kg oral, repeated for 4 days
Experimental: Using male rats, aged 6 weeks, general states of the rats were observed after repeating oral administration of the test compound at a dose of 0.1 mg/kg for 4 days. To a control, injectable water which is a medium was administered.

[5] = Parallel artificial membrane permeability assay (PAMPA); type: in vitro ADME; conditions: sum of pH 5.0, 6.2 and 7.4, 25° C., read-out: membrane permeability coefficients (PAMPA(SUM))
Experimental: The permeability of the drugs through artificial membranes was measured by parallel artificial membrane permeability assay (PAMPA) under the following conditions. For the measurements, a PAMPA system (pION) was used. The membrane permeability was evaluated by measuring membrane permeability coefficients at three pH values and summing the values (PAMPA(SUM)(cm/sec)).
Lipid membrane: GIT-0 (pION)
Incubation temperature: 25° C.
Donor: 5% DMSO-containing buffer
Compound concentration: 50 μmol/L

[6] = test system: human lyophilized liver cells; assay: Stability evaluation in lyophilized liver cells; type: in vitro ADME; conditions: 37° C.
Experimental: KHEM5100 medium which includes human lyophilized liver cells after dissolving (final concentration of living cells: 1×10^6 cells/mL) and the test compound (acetonitrile or methanol solution, final concentration≦1%) was incubated at 37° C. Immediately after reaction and with the passage of reaction time, some portions were sampled from the medium. The concentrations of the test compound in the samples were measured by LC/MS/MS. The residual rate of the test compound relative to immediately after reaction was calculated by the following equation: Residual rate=the concentration of the test compound in the sample after reaction/the concentration of the test compound in the sample immediately after reaction×100(%) The residual rates were plotted on a single logarithmic scale against reaction time to calculate loss rate constants. The test was repeated (n=2), and the obtained values were averaged.

C[C@@](O)(C/C=C/[C@H]1CCC(=O)[C@@H]1CCSc1nc(C(=O)O)cs1)CCC(F)=C(F)F [Compound 17, 2-[(2-{(1R,5R)-2-oxo-5-[(1E,4S)-7,8,8-trifluoro-4-hydroxy-4-methyl-1,7-octadien-1-yl]cyclopentyl}ethyl)thio]-1,3-thiazole-4-carboxylic acid]
Contractility of the bladder detrusor according to the compound concentration treated ([1]; 0 nmol/L): 3 % of 7.5 mmol/L KCl
Contractility of the bladder detrusor according to the compound concentration treated ([1]; 1 nmol/L): −2 % of 7.5 mmol/L KCl
Contractility of the bladder detrusor according to the compound concentration treated ([1]; 10 nmol/L): 23 % of 7.5 mmol/L KCl
Contractility of the bladder detrusor according to the compound concentration treated ([1]; 100 nmol/L): 100 % of 7.5 mmol/L KCl
Contractility of the bladder detrusor according to the compound concentration treated ([1]; 1 μmol/L): 180 % of 7.5 mmol/L KCl
Contractility of the bladder detrusor according to the compound concentration treated ([1]; 10 μmol/L): 259 % of 7.5 mmol/L KCl
effect on the bladder detrusor ([1]; summary in words of Table 1): contracted the bladder detrusor
effect on the blood pressure ([2]; 0.3 mg/kg): no effect
effect on the heart rate ([2]; 0.3 mg/kg): no effect
effect on the blood pressure ([2]; 1 mg/kg): no effect
effect on the blood pressure [3]: no effect
digestive symptoms such as soft feces [4]: No digestive symptoms
Papp at 4 hr, 50 μmol/L [5]: 59.3 ×10⁻⁶ cm/s
Residual rate ([6]; Reaction time 0 h): 100%
Residual rate ([6]; Reaction time 0.5 h): 111%
Residual rate ([6]; Reaction time 1 h): 101%
Residual rate ([6]; Reaction time 1 h, listed as compound 17): 100%
Residual rate ([6]; Reaction time 2 h): 82.2%
Residual rate ([6]; Reaction time 2 h, listed as compound 17): ≥ 80%
